Here are results for 1 compound from US20060135415A1, “Immunomodulation and effect on cell processes relating to serotonin family receptors and the blood-brain barrier” (priority 2002, published 2006).

The subject of data set [1] is RPMI 8226 cells. In words: Annexin V / propidium iodide flow cytometry. Type of data set: cell-based, human. Conditions: RPMI 8226 cells (FIGS. 27, 34).
Procedure: Early apoptotic cells were detected by co-staining cells previously exposed to each experimental condition. Briefly, cells were incubated during a time course in the presence of various concentrations of each experimental or control apoptosis inducing agent as set forth elsewhere herein. After incubation, the cells were washed with ice-cold PBS, stained with Annexin V-Alexa flour 488 and Propidium Iodide (Molecular Probes, Eugene, Oreg.) and analyzed by dual-color flow cytometry. Annexin V^+ and PI^− cells were considered as early apoptotic cells. The known terminal differentiator of myeloma cells, HMBA (hexamethylene-bis-acetamide), and the topoisomerase inhibitor, camtothecin, were used as positive controls for apoptosis at 5 mM and 2 μM, respectively.
Therefore, the degree of apoptosis in a cell population can be ascertained by assessing the presence of annexin-V positive cells and the absence of propidium iodide (PI) staining cells (necrotic cells). […] The extent of apoptosis was determined by analyzing flow cytometry data and generating FACS plots, which were then gated to include only the population of cells which were PI negative (non-necrotic). The degree of annexin-V positive cells was then measured in this PI negative cell population as a measure of apoptosis (FIG. 34).
Data set [2] in a line: In vivo screen for sedation / CNS effects after i.v. injection. Also on record: species or system BALB/c mice. Here is the method:
Both QSS5 and QSS6 were assayed in vivo for the immediate ‘sleep’ effect.

Data set [3] has as its system Chronic Lymphocytic Leukemia tumor cells. The data set can be described thus: Ex planted bone marrow aspirates from a CLL patient. Type of data set: cell-based, human.
The test system of data set [4] is RPMI 8226 cells. The data set can be described thus: DNA fragmentation (internucleosomal laddering). The class given is cell-based, human. Conditions: RPMI 8226 cells (FIGS. 26, 35). The protocol:
Cells (8×10^5) were washed with ice-cold PBS following experimental treatments and pelleted by centrifugation (500×g, 5 min). Cell pellets were incubated for 5 minutes on ice in lysis buffer (1% IGEPAL-CA630, 20 mM EDTA, 50 mM Tris-HCL, pH 7.5). Lysates were centrifuged at about 1,600×g for 5 minutes. 501 μL of lysis buffer was added to the supernatant. The extract was brought to 1% SDS and treated for 2 hours with 5 μg/μL Rnase A (57° C.) followed by treatment with 2.5 μg/μL proteinase K for 2 hours (37° C.). After digestion of RNA and protein, half volume of 10 M ammonium acetate was added and the DNA was precipitated using 2.5 volumes of ethanol, washed in 70% ethanol, air-dried, and dissolved in TE buffer. DNA fragments were separated by electrophoresis in 1.5% agarose gels using a protocol adapted from Siegel et al. (1998, Proc. Natl. Acad. Sci. USA 95:162-166).

Data set [5] deals with ConA stimulated human lymphocytes. The data set can be described thus: Human mitogenic (ConA) stimulation, 3H-thymidine incorporation. Type of data set: cell-based. In general terms: Uptake of a labelled nucleoside into DNA is a usual measure of proliferation.
In data set [6] the target is T1, human 5HT2C-INI receptor (Homo sapiens, UniProt P28335).
T1 sequence (P28335 33-458): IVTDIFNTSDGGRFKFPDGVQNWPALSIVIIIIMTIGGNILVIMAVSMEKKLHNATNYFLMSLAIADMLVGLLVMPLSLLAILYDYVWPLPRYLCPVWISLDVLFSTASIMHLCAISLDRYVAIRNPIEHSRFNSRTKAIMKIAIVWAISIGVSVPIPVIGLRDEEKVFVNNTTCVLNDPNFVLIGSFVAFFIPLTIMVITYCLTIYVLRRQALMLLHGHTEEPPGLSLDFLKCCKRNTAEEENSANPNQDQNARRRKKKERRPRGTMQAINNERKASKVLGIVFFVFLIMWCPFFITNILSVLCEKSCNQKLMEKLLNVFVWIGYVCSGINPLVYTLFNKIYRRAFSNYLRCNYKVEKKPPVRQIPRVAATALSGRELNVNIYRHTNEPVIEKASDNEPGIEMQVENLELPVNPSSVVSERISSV
The following applies: HEK-293 cells, data from Rauser et al. 2001 (FIG. 38); cited from earlier work.

The structures appear in SMILES notation. “Also recorded” adds a separate entry of the source.

In the case of `OCCN1CCN(CCCN2c3ccccc3Sc3ccc(C(F)(F)F)cc32)CC1` [Fluphenazine], the “apoptosis, annexin-V positive / PI negative cells” value in data set [1] was “significantly greater degree of apoptosis than any of the control cell populations”. In data set [2] (15 mg/kg i.v. tail vein, BALB/c mice), the duration of sleep entry is reported as “approximately 10 hours”. In addition, the “sedation / abnormal behavior” value in data set [2] (15 mg/kg i.v. tail vein, BALB/c mice, observed over 72 hour period) is reported as “instantly sedated”. Further, the sedative effect result in data set [2] (intravenous injection in an animal) is “strong sedative, inducing sleep in an animal before the needle is withdrawn from the vein”. Moreover, the tumor cell burden result in data set [3] is recorded as “reduces the tumor cell burden”. Moreover, the DNA laddering result in data set [4] is recorded as “increase in DNA laddering over control cell extracts”. For the same compound, the “activation / proliferative response” value in data set [5] (5 μg/ml ConA, harvest 72 hours, drug titration (FIGS. 7A, 8A, 9A, 17, 33)) was “dramatic and dose-dependent decrease in proliferation”. Besides, the “in vitro activation / proliferation of (helper) T cells” value in data set [5] (in vitro) is “inhibits T cell responses”. The “inverse agonism / inhibition of 5-HT 2C receptor” value in data set [6] is given as “potent inverse agonist; also recorded: effective inhibitor (inverse agonist)”.
